Experimental data published in BindingDB's records for doi:10.1021/acs.jmedchem.0c01741 (Zhengzhou University, 2020).
pIC50: −log10 of the molar value.

test: Inhibition of ABCB1 (unknown origin) expressed in HEK293 cells assessed as increase in reversal of resistance to paclitaxel-induced cytotoxicity by measuring paclitaxel IC50 at 10 uM pre-incubated for 4 hrs followed by paclitaxel addition and measured after 72 hrs by MTT assay (Rvb = 91.40 +/- 23.32 nM)

Question: With `Cc1cc(Nc2ccc(F)cc2)n2nc(SCc3nc4ccccc4[nH]3)nc2n1` as the compound, how does the pIC50 read?
Answer: Its pIC50 is 8.00.

test: Inhibition of ABCB1 in multidrug-resistant human KB-C2 cells assessed as increase in reversal of resistance to paclitaxel-induced cytotoxicity by measuring paclitaxel IC50 at 20 uM pre-incubated for 4 hrs followed by paclitaxel addition and measured after 72 hrs by MTT assay (Rvb = 1886.37 +/- 243.05 nM)

Question: With `Cc1cc(Nc2ccc(F)cc2)n2nc(SCc3nc4ccccc4[nH]3)nc2n1` as the compound, how does the pIC50 read?
Answer: Its pIC50 is 8.32.

test: Inhibition of ABCB1 in multidrug-resistant human SW620/Ad300 cells assessed as increase in reversal of resistance to paclitaxel-induced cytotoxicity by measuring paclitaxel IC50 pre-incubated for 4 hrs followed by paclitaxel addition and measured after 72 hrs by MTT assay (Rvb = 4.23 +/- 0.6 uM)

Question: With `Cc1cc(Nc2ccc(F)cc2)n2nc(SCc3nc4ccccc4[nH]3)nc2n1` as the compound, how does the pIC50 read?
Answer: The pIC50 was 7.66.

Question: With `Cc1cc(Nc2ccc(C#N)cc2)n2nc(SCc3nc4ccccc4[nH]3)nc2n1` as the compound, how does the pIC50 read?
Answer: Its pIC50 is 6.23.

Question: With `Cc1cc(Nc2ccc(C(=O)O)cc2)n2nc(SCc3nc4ccccc4[nH]3)nc2n1` as the compound, how does the pIC50 read?
Answer: Its pIC50 is 5.39.

Question: With `COc1cc(Nc2cc(C)nc3nc(SCc4nc5ccccc5[nH]4)nn23)cc(OC)c1OC` as the compound, how does the pIC50 read?
Answer: The pIC50 was 6.60.

Question: With `Cc1ccc(Nc2cc(C)nc3nc(SCc4nc5ccccc5[nH]4)nn23)cc1` as the compound, how does the pIC50 read?
Answer: The pIC50 was 6.30.

Question: With `Cc1cc(Nc2ccc(Br)cc2)n2nc(SCc3nc4ccccc4[nH]3)nc2n1` as the compound, how does the pIC50 read?
Answer: Its pIC50 is 6.35.

Question: With `O=c1cc(-c2ccccc2)[nH]c2nc(SCc3nc4ccccc4[nH]3)nn12` as the compound, how does the pIC50 read?
Answer: Its pIC50 is 6.18.

Question: With `Cc1cc(Nc2ccc(N3CCN(C)CC3)cc2)n2nc(SCc3nc4ccccc4[nH]3)nc2n1` as the compound, how does the pIC50 read?
Answer: Its pIC50 is 5.80.

Question: With `Cc1cc(Nc2cc(C)[nH]n2)n2nc(SCc3nc4ccccc4[nH]3)nc2n1` as the compound, how does the pIC50 read?
Answer: Its pIC50 is 5.80.

Question: With `Cc1cc(Nc2ccc3c(C)cc(=O)oc3c2)n2nc(SCc3nc4ccccc4[nH]3)nc2n1` as the compound, how does the pIC50 read?
Answer: The pIC50 was 5.94.

Question: With `C#Cc1cccc(Nc2cc(C)nc3nc(SCc4nc5ccccc5[nH]4)nn23)c1` as the compound, how does the pIC50 read?
Answer: Its pIC50 is 5.84.

Question: With `Cc1cc(Nc2ccc(O)cc2)n2nc(SCc3nc4ccccc4[nH]3)nc2n1` as the compound, how does the pIC50 read?
Answer: The pIC50 was 5.62.

Question: With `COc1cccc(Nc2cc(C)nc3nc(SCc4nc5ccccc5[nH]4)nn23)c1` as the compound, how does the pIC50 read?
Answer: The pIC50 was 6.24.

Question: With `COc1ccc(Nc2cc(C)nc3nc(SCc4nc5ccccc5[nH]4)nn23)cc1` as the compound, how does the pIC50 read?
Answer: The pIC50 was 6.49.

Question: With `Cc1cc(Nc2ccc(Cl)cc2Cl)n2nc(SCc3nc4ccccc4[nH]3)nc2n1` as the compound, how does the pIC50 read?
Answer: Its pIC50 is 6.15.

Question: With `CC(=O)c1ccc(Nc2cc(C)nc3nc(SCc4nc5ccccc5[nH]4)nn23)cc1` as the compound, how does the pIC50 read?
Answer: Its pIC50 is 6.12.

Question: With `Cc1cc(Nc2ccc(OC(F)(F)F)cc2)n2nc(SCc3nc4ccccc4[nH]3)nc2n1` as the compound, how does the pIC50 read?
Answer: Its pIC50 is 6.14.

Question: With `Cc1cc(Nc2ccc(C(F)(F)F)cc2)n2nc(SCc3nc4ccccc4[nH]3)nc2n1` as the compound, how does the pIC50 read?
Answer: Its pIC50 is 6.07.

Question: With `Cc1ccc(Nc2cc(C)nc3nc(SCc4nc5ccccc5[nH]4)nn23)c(F)c1` as the compound, how does the pIC50 read?
Answer: Its pIC50 is 6.20.

Question: With `Cc1cc(Nc2ccc(F)c(C)c2)n2nc(SCc3nc4ccccc4[nH]3)nc2n1` as the compound, how does the pIC50 read?
Answer: Its pIC50 is 6.33.

Question: With `Cc1cc(Nc2ccc(F)c(Cl)c2)n2nc(SCc3nc4ccccc4[nH]3)nc2n1` as the compound, how does the pIC50 read?
Answer: Its pIC50 is 6.11.

Question: With `Cc1cc(Nc2cccc(F)c2)n2nc(SCc3nc4ccccc4[nH]3)nc2n1` as the compound, how does the pIC50 read?
Answer: Its pIC50 is 6.28.

Question: With `Cc1cc(Nc2ccccc2F)n2nc(SCc3nc4ccccc4[nH]3)nc2n1` as the compound, how does the pIC50 read?
Answer: The pIC50 was 6.66.

Question: With `Cc1cc(Nc2ccc(F)cc2)n2nc(SCC(=O)c3ccccc3)nc2n1` as the compound, how does the pIC50 read?
Answer: Its pIC50 is 5.90.

Question: With `Cc1cc(Nc2ccc(F)cc2)n2nc(SCc3csc4ccc(Cl)cc34)nc2n1` as the compound, how does the pIC50 read?
Answer: Its pIC50 is 5.55.

Question: With `Cc1cc(Nc2ccc(F)cc2)n2nc(SCC3CC3)nc2n1` as the compound, how does the pIC50 read?
Answer: Its pIC50 is 5.39.

Question: With `C#CCSc1nc2nc(C)cc(Nc3ccc(F)cc3)n2n1` as the compound, how does the pIC50 read?
Answer: The pIC50 was 5.47.

Question: With `C=CCSc1nc2nc(C)cc(Nc3ccc(F)cc3)n2n1` as the compound, how does the pIC50 read?
Answer: Its pIC50 is 5.38.

Question: With `CCCSc1nc2nc(C)cc(Nc3ccc(F)cc3)n2n1` as the compound, how does the pIC50 read?
Answer: The pIC50 was 5.45.

Question: With `Cc1cc(Nc2ccc(F)cc2)n2nc(SCCCc3ccccc3)nc2n1` as the compound, how does the pIC50 read?
Answer: Its pIC50 is 5.37.

Question: With `Cc1cc(Nc2ccc(F)cc2)n2nc(SCCc3ccccc3)nc2n1` as the compound, how does the pIC50 read?
Answer: The pIC50 was 5.81.

Question: With `Cc1cc(Nc2ccc(F)cc2)n2nc(SCc3cccc4ccccc34)nc2n1` as the compound, how does the pIC50 read?
Answer: The pIC50 was 5.76.

Question: With `Cc1cc(Nc2ccc(F)cc2)n2nc(SCc3c(Cl)cccc3Cl)nc2n1` as the compound, how does the pIC50 read?
Answer: Its pIC50 is 5.71.

Question: With `Cc1cc(Nc2ccc(F)cc2)n2nc(SCc3cccc([N+](=O)[O-])c3)nc2n1` as the compound, how does the pIC50 read?
Answer: The pIC50 was 5.70.

Question: With `Cc1cc(Nc2ccc(F)cc2)n2nc(SCc3ccc([N+](=O)[O-])cc3)nc2n1` as the compound, how does the pIC50 read?
Answer: The pIC50 was 5.64.

Question: With `Cc1cc(Nc2ccc(F)cc2)n2nc(SCc3ccc(C(F)(F)F)cc3)nc2n1` as the compound, how does the pIC50 read?
Answer: The pIC50 was 5.59.

Question: With `Cc1cc(Nc2ccc(F)cc2)n2nc(SCc3cccc(Br)c3)nc2n1` as the compound, how does the pIC50 read?
Answer: Its pIC50 is 5.69.

Question: With `Cc1cc(Nc2ccc(F)cc2)n2nc(SCc3ccccc3Br)nc2n1` as the compound, how does the pIC50 read?
Answer: Its pIC50 is 5.79.

Question: With `Cc1cc(Nc2ccc(F)cc2)n2nc(SCc3ccc(Br)cc3)nc2n1` as the compound, how does the pIC50 read?
Answer: Its pIC50 is 5.86.

Question: With `Cc1cc(Nc2ccc(F)cc2)n2nc(SCc3ccc(Cl)cc3)nc2n1` as the compound, how does the pIC50 read?
Answer: The pIC50 was 5.72.

Question: With `Cc1cc(Nc2ccc(F)cc2)n2nc(SCc3ccc(F)cc3)nc2n1` as the compound, how does the pIC50 read?
Answer: Its pIC50 is 5.90.

Question: With `CC(C)c1cc(Nc2ccc(F)cc2)n2nc(SCc3ccccc3)nc2n1` as the compound, how does the pIC50 read?
Answer: Its pIC50 is 5.84.

test: Inhibition of ABCB1 (unknown origin) expressed in HEK293 cells assessed as increase in reversal of resistance to paclitaxel-induced cytotoxicity by measuring paclitaxel IC50 at 20 uM pre-incubated for 4 hrs followed by paclitaxel addition and measured after 72 hrs by MTT assay (Rvb = 91.40 +/- 23.32 nM)

Question: With `Cc1cc(Nc2ccc(F)cc2)n2nc(SCc3nc4ccccc4[nH]3)nc2n1` as the compound, how does the pIC50 read?
Answer: The pIC50 was 8.30.

test: Inhibition of ABCB1 in multidrug-resistant human KB-C2 cells assessed as increase in reversal of resistance to paclitaxel-induced cytotoxicity by measuring paclitaxel IC50 at 10 uM pre-incubated for 4 hrs followed by paclitaxel addition and measured after 72 hrs by MTT assay (Rvb = 1886.37 +/- 243.05 nM)

Question: With `Cc1cc(Nc2ccc(F)cc2)n2nc(SCc3nc4ccccc4[nH]3)nc2n1` as the compound, how does the pIC50 read?
Answer: The pIC50 was 7.66.

test: Inhibition of ABCB1 in multidrug-resistant human SW620/Ad300 cells assessed as increase in reversal of resistance to paclitaxel-induced cytotoxicity by measuring paclitaxel IC50 at 20 uM pre-incubated for 4 hrs followed by paclitaxel addition and measured after 72 hrs by MTT assay (Rvb = 4233.18 +/- 499.10 nM)

Question: With `Cc1cc(Nc2ccc(F)cc2)n2nc(SCc3nc4ccccc4[nH]3)nc2n1` as the compound, how does the pIC50 read?
Answer: The pIC50 was 7.66.

test: Inhibition of ABCB1 in multidrug-resistant human SW620/Ad300 cells assessed as increase in reversal of resistance to paclitaxel-induced cytotoxicity by measuring paclitaxel IC50 at 10 uM pre-incubated for 4 hrs followed by paclitaxel addition and measured after 72 hrs by MTT assay (Rvb = 4233.18 +/- 499.10 nM)

Question: With `Cc1cc(Nc2ccc(F)cc2)n2nc(SCc3nc4ccccc4[nH]3)nc2n1` as the compound, how does the pIC50 read?
Answer: Its pIC50 is 7.13.
